Data taken from patent US20210221866A1, “PROTEASE-RESISTANT LIPIDATED GLP-1 ANALOGS” (MEDIMMUNE LIMITED, priority 2015, published 2021).
Where two headings read alike, the source gives them in different places. Numbered stars: 1 amine (or outer) side, 2 acyl side, 3 side chain; on linkers, the order of the positions; unused ones are H or OH. Square brackets hold non-standard residues; d marks the D form. Side chains are listed from the residue outwards. Peptide text beside a SMILES is read from it. * marks the point of attachment. C18 diacid = O=C(O)CCCCCCCCCCCCCCCCC(=O)*; γGlu = O=C(O)[C@H](CCC(=O)[*:2])N[*:1]; αMeF = C[C@](N)(Cc1ccccc1)C(=O)O; αMeK = C[C@](N)(CCCCN)C(=O)O; αMeS = C[C@](N)(CO)C(=O)O; AEEA = NCCOCCOCC(=O)O; Aib = CC(C)(N)C(=O)O

Assays:
Type in all cases: cell-based
[1] = molecular target: T1, GLP-1R (INS1e cells) (Rattus norvegicus, UniProt P32301); assay: INS1e assay, cAMP activity at GLP-1R; conditions: Table 8, substituted and mono-lipidated peptides
T1 construct: endogenous in cells; host or cells: INS1e cells
T1 sequence (P32301 22-463): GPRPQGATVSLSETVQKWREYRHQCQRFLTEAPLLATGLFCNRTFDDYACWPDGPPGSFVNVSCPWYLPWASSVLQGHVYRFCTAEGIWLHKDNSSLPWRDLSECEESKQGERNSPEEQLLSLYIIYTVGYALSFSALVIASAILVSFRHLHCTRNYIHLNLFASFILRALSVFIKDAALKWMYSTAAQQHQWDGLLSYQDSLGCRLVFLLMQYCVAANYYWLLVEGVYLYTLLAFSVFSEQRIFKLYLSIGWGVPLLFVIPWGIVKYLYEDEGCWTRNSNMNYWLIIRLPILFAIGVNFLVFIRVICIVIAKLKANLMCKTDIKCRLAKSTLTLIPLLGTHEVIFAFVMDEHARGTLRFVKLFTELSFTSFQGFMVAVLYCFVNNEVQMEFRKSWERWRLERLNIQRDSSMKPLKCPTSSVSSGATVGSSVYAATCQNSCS

[2] = molecular target: T2, human glucagon receptor (GCGR) (Homo sapiens, UniProt P47871); assay: cAMP assay, human GCGR cells; conditions: cAMP activity; second determination (n2); read-out: Primary assay EC50 Gluc-R
T2 construct: expressed in transfected cells; host or cells: HEK293 cells or CHO cells
T2 sequence (P47871 26-477): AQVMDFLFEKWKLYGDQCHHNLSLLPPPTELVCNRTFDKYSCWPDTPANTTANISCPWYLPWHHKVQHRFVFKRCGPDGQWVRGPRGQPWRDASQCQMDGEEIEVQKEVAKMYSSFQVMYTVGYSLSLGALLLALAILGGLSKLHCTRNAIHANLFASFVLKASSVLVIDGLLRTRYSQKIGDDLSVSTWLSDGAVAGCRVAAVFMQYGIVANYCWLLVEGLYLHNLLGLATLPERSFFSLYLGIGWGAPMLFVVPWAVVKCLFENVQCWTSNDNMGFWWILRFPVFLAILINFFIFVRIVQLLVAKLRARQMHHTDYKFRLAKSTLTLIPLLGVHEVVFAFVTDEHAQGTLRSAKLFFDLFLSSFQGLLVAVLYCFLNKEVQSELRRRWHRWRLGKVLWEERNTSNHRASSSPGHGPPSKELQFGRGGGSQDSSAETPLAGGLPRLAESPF
Method in brief: (§1)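 Peptide-stimulated cAMP measured by two-step HTRF after a 30 min room-temperature incubation with receptor-expressing cells (hGLP-1R, hGIPR at 1×10^5 cells/ml; hGCGR at 2×10^5 cells/ml). Duplicate dilutions; EC50 from 4-parameter logistic fit of % Delta F.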

[3] = molecular target: T3, human GLP-1 receptor (GLP-1R) (Homo sapiens, UniProt P43220); assay: cAMP assay, human GLP-1R cells; conditions: cAMP activity
T3 construct: expressed in transfected cells; host or cells: HEK293 cells or CHO cells
T3 sequence (P43220 24-463): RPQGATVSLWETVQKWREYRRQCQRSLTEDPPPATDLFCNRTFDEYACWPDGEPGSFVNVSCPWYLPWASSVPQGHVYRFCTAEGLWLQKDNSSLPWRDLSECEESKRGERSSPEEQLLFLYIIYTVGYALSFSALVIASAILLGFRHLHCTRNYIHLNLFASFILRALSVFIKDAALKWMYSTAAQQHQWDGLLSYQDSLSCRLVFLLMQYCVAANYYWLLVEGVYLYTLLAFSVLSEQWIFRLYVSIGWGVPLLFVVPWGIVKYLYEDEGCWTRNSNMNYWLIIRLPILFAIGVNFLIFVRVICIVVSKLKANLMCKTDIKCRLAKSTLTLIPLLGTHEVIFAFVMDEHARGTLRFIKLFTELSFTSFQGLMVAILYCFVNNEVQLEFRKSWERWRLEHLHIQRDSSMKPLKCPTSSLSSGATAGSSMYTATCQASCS
Method in brief: as §1

[4] = molecular target: T4, human glucose-dependent insulinotropic peptide receptor (GIPR) (Homo sapiens, UniProt P48546); assay: cAMP assay, human GIPR cells; conditions: cAMP activity, read-out: Primary assay EC50 GIP-R
T4 construct: expressed in transfected cells; host or cells: HEK293 cells or CHO cells
T4 sequence (P48546 22-466): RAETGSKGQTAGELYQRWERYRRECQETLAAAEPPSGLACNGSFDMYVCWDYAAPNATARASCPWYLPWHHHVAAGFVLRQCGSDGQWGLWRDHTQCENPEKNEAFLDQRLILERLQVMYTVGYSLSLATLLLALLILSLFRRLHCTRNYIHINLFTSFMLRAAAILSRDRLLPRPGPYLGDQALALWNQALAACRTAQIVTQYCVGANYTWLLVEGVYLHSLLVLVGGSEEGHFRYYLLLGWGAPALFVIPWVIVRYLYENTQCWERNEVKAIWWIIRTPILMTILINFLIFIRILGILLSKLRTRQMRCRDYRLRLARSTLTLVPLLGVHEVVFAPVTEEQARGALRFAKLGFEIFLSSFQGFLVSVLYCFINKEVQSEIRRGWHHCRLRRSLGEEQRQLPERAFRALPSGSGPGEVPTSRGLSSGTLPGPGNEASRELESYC
Method in brief: as §1

[5] = mean of n1 and n2, read-out: INS1e assay EC50 Mean pM GLP-1R
[6] = replicate n1, read-out: INS1e assay EC50 GLP-1R n1
[7] = replicate n2, read-out: INS1e assay EC50 GLP-1R n2
[8] = first determination (n1), read-out: Primary assay EC50 GLP-1R n1
[9] = mean of n1 and n2, read-out: Mean pM GLP-1R
[10] = second determination (n2), read-out: Primary assay EC50 GLP-1R n2

| EC50 [1, 5] | EC50 [1, 6] | EC50 [1, 7] | EC50 [2] | EC50 [3, 8] | EC50 [3, 9] | EC50 [3, 10] | EC50 ([4]; first determination (n1)) | EC50 ([4]; second determination (n2)) | SMILES |
| --- | --- | --- | --- | --- | --- | --- | --- | --- | --- |
| 3560 pM | 4220 pM | 2890 pM | ≥ 25.2 nM | 24 pM | 22 pM | 20.6 pM | ≥ 25 nM | ≥ 25.2 nM | CC[C@H](C)[C@H](NC(=O)[C@](C)(Cc1ccccc1)NC(=O)[C@H](CCC(=O)O)NC(=O)[C@](C)(CCCCN)NC(=O)[C@H](C)NC(=O)[C@H](C)NC(=O)[C@H](CCC(=O)O)NC(=O)CNC(=O)[C@H](CCC(=O)O)NC(=O)[C@H](CC(C)C)NC(=O)[C@](C)(Cc1ccccc1)NC(=O)[C@H](CO)NC(=O)[C@](C)(CO)NC(=O)[C@@H](NC(=O)[C@H](CC(=O)O)NC(=O)[C@H](CO)NC(=O)[C@@H](NC(=O)[C@](C)(Cc1ccccc1)NC(=O)[C@H](CO)NC(=O)CNC(=O)[C@H](CCC(=O)O)NC(=O)C(C)(C)NC(=O)[C@@H](N)Cc1c[nH]cn1)[C@@H](C)O)C(C)C)C(=O)N[C@@H](C)C(=O)N[C@@](C)(Cc1ccccc1)C(=O)N[C@H](C(=O)N[C@@H](CCCCNC(=O)COCCOCCNC(=O)COCCOCCNC(=O)CC[C@H](NC(=O)CCCCCCCCCCCCCCCCC(=O)O)C(=O)O)C(=O)N[C@@](C)(CCCCN)C(=O)NCC(=O)NCC(N)=O)C(C)C [compound 102] (H-H[Aib]EGS[αMeF]TSDV[αMeS]S[αMeF]LEGEAA[αMeK]E[αMeF]IA[αMeF]VK([AEEA-AEEA-γGlu-C18 diacid])[αMeK]GG-NH2) |
| 509 pM | 428 pM | 590 pM | ≥ 25.2 nM | 4.7 pM | 5 pM | 4.56 pM | ≥ 25 nM | ≥ 25.2 nM | CC[C@H](C)[C@H](NC(=O)[C@](C)(Cc1ccccc1)NC(=O)[C@H](CCC(=O)O)NC(=O)[C@](C)(CCCCN)NC(=O)[C@H](C)NC(=O)[C@H](C)NC(=O)[C@H](CCC(=O)O)NC(=O)CNC(=O)[C@H](CCC(=O)O)NC(=O)[C@H](CC(C)C)NC(=O)[C@](C)(Cc1ccccc1)NC(=O)[C@H](CO)NC(=O)[C@](C)(CO)NC(=O)[C@@H](NC(=O)[C@H](CC(=O)O)NC(=O)[C@H](CO)NC(=O)[C@@H](NC(=O)[C@](C)(Cc1ccccc1)NC(=O)[C@H](CO)NC(=O)CNC(=O)[C@H](CCC(=O)O)NC(=O)C(C)(C)NC(=O)[C@@H](N)Cc1c[nH]cn1)[C@@H](C)O)C(C)C)C(=O)N[C@@H](C)C(=O)N[C@@](C)(Cc1ccccc1)C(=O)N[C@@H](CCCCNC(=O)COCCOCCNC(=O)COCCOCCNC(=O)CC[C@H](NC(=O)CCCCCCCCCCCCCCCCC(=O)O)C(=O)O)C(=O)N[C@H](C(=O)N[C@@](C)(CCCCN)C(=O)NCC(=O)NCC(N)=O)C(C)C [compound 103] (H-H[Aib]EGS[αMeF]TSDV[αMeS]S[αMeF]LEGEAA[αMeK]E[αMeF]IA[αMeF]K([AEEA-AEEA-γGlu-C18 diacid])V[αMeK]GG-NH2) |
